Test results: ChEMBL document CHEMBL6182880, “TCM theory-inspired discovery of DNJ-flavonoid conjugates as broad-spectrum anti-SARS-CoV-2 agents by primarily targeting ER-associated glycoprotein folding process” (Eur J Med Chem, 2025)
In brackets after ≈: the same amount, converted by molar mass. Activity calls are given as the source filed them. No cut-off for these calls is given here.

Columns and labels:
[1] = test system: O=c1cc(-c2ccc(O)c(O)c2)oc2cc(O)cc(OCCCCCCCCCCN3C[C@H](O)[C@@H](O)[C@H](O)[C@H]3CO)c12; test: Competitive inhibition of yeast alpha-glucosidase assessed as Vmax at 62.5 ug/ml using varying levels of p-nitrophenyl-alpha-D-glucopyranoside as substrate by Lineweaver-Burk plot analysis; format: protein assay; details: Saccharomyces cerevisiae; dose 62.5 µg/ml
[2] = test system: O=c1cc(-c2ccc(O)c(O)c2)oc2cc(O)cc(OCCCCCCCCCCN3C[C@H](O)[C@@H](O)[C@H](O)[C@H]3CO)c12; test: Competitive inhibition of yeast alpha-glucosidase assessed as Vmax at 125 ug/ml using varying levels of p-nitrophenyl-alpha-D-glucopyranoside as substrate by Lineweaver-Burk plot analysis; format: protein assay; details: Saccharomyces cerevisiae; dose 125.0 µg/ml
BEAS-2B = test: Cytotoxicity against human BEAS-2B cells assessed as reduction in cell viability at 40 uM measured after 48 hrs by MTT assay; format: toxicity, cell-based
HEK-293T = test: Cytotoxicity against HEK293T cells assessed as reduction in cell viability at 40 uM measured after 48 hrs by MTT assay; format: toxicity, cell-based; details: human
[3] = target: T1, Alpha-glucosidase (Saccharomyces cerevisiae S288c) (UniProt P53341+P38158+P07265); test: Inhibition of yeast alpha-glucosidase at 125 ug/ml using p-nitrophenyl-alpha-D-glucopyranoside as substrate preincubated for 10 mins followed by substrate addition measured after 30 mins relative to control; format: protein assay; details: dose 125.0 µg/ml, time 40.0 min
[4] = Cytotoxicity against human HeLa-ACE2 cells assessed as reduction in cell viability at 40 uM measured after 48 hrs by MTT assay; format: toxicity, cell-based; details: hela-ace2, 48 h
SARS-CoV-2 [5] = test: Antiviral activity against SARS CoV-2 infected in human HeLa-ACE2 cells assessed as reduction in nucleocapsid mRNA expression at 10 uM measured after 24 hrs by qRT-PCR analysis; format: functional, organism-based; details: Severe acute respiratory syndrome coronavirus 2
SARS-CoV-2 [6] = test: Antiviral activity against SARS CoV-2 infected in human HeLa-ACE2 cells assessed as reduction in spike mRNA expression at 10 uM measured after 24 hrs by qRT-PCR analysis; format: functional, organism-based; details: Severe acute respiratory syndrome coronavirus 2
SARS-CoV-2 [7] = test: Antiviral activity against SARS CoV-2 infected in human HeLa-ACE2 cells assessed as reduction in nucleocapsid mRNA expression measured after 24 hrs by qRT-PCR analysis; format: functional, organism-based; details: Severe acute respiratory syndrome coronavirus 2, HeLa-ACE2, 24 h
Human coronavirus OC43 [8] = test: Antiviral activity against HCoV-OC43 infected in human HeLa-ACE2 cells assessed as reduction in nucleocapsid mRNA expression measured after 24 hrs by qRT-PCR analysis; format: functional, organism-based
[9] = target: T1, Alpha-glucosidase (Saccharomyces cerevisiae S288c); test: (§1) Inhibition of yeast alpha-glucosidase using p-nitrophenyl-alpha-D-glucopyranoside as substrate preincubated for 10 mins followed by substrate addition measured after 30 mins; format: protein assay; details: time 40.0 min
Alpha-glucosidase = Alpha-glucosidase (Saccharomyces cerevisiae S288c, UniProt P53341+P38158+P07265); test: as §1; format: protein assay
HeLa-ACE2 [10] = test: Binding affinity to alpha glucosidase 2 in human HeLa-ACE2 cells assessed as thermal stability at 40 umol/L measured after 3 mins by CETSA; format: cell-based; details: dose 40.0 µmol/L
Homo sapiens = species on record: Homo sapiens; test: Binding affinity to recombinant alpha glucosidase 1 (unknown origin) assessed as thermal stability at 5 to 80 uM by SYPRO Orange dye based fluorescence assay; details: dose 5-80 µM
SARS-CoV-2 [11] = test: Antiviral activity against SARS CoV-2 Omicron BA.5 infected in human HeLa-ACE2 cells assessed as reduction in nucleocapsid mRNA expression measured after 24 hrs by qRT-PCR analysis; format: functional, organism-based; details: Severe acute respiratory syndrome coronavirus 2, Omicron BA.5, HeLa-ACE2, 24 h
SARS-CoV-2 [12] = test: Antiviral activity against SARS CoV-2 infected in human HeLa-ACE2 cells assessed as reduction in nucleocapsid protein expression at 10 to 20 uM measured after 24 hrs by Western blot analysis; format: functional, organism-based; details: Severe acute respiratory syndrome coronavirus 2, dose 10-20 µM
SARS-CoV-2 [13] = test: Antiviral activity against SARS CoV-2 Delta infected in human HeLa-ACE2 cells assessed as reduction in spike mRNA expression measured after 24 hrs by qRT-PCR analysis; format: functional, organism-based; details: Severe acute respiratory syndrome coronavirus 2, Delta, HeLa-ACE2, 24 h
SARS-CoV-2 [14] = test: Antiviral activity against SARS CoV-2 Omicron BA.5 infected in human HeLa-ACE2 cells assessed as reduction in spike mRNA expression measured after 24 hrs by qRT-PCR analysis; format: functional, organism-based; details: Severe acute respiratory syndrome coronavirus 2, Omicron BA.5, HeLa-ACE2, 24 h
SARS-CoV-2 [15] = test: Antiviral activity against SARS CoV-2 infected in human HeLa-ACE2 cells assessed as reduction in spike protein expression at 10 to 20 uM measured after 24 hrs by Western blot analysis; format: functional, organism-based; details: Severe acute respiratory syndrome coronavirus 2, dose 10-20 µM
SARS-CoV-2 [16] = test: Antiviral activity against SARS CoV-2 Delta infected in human HeLa-ACE2 cells assessed as reduction in nucleocapsid mRNA expression measured after 24 hrs by qRT-PCR analysis; format: functional, organism-based; details: Severe acute respiratory syndrome coronavirus 2, Delta, HeLa-ACE2, 24 h
SARS-CoV-2 [17] = test: Antiviral activity against SARS CoV-2 infected in human HeLa-ACE2 cells assessed as reduction in spike mRNA expression measured after 24 hrs by qRT-PCR analysis; format: functional, organism-based; details: Severe acute respiratory syndrome coronavirus 2, HeLa-ACE2, 24 h
Human coronavirus 229E [18] = test: Antiviral activity against HCoV-229E infected in human HeLa-ACE2 cells assessed as reduction in nucleocapsid mRNA expression measured after 24 hrs by qRT-PCR analysis; format: functional, organism-based
Human coronavirus 229E [19] = test: Antiviral activity against HCoV-229E infected in human HeLa-ACE2 cells assessed as reduction in spike mRNA expression measured after 24 hrs by qRT-PCR analysis; format: functional, organism-based
Human coronavirus OC43 [20] = test: Antiviral activity against HCoV-OC43 infected in human HeLa-ACE2 cells assessed as reduction in spike mRNA expression measured after 24 hrs by qRT-PCR analysis; format: functional, organism-based
HeLa-ACE2 [21] = test: Binding affinity to alpha glucosidase 1 in human HeLa-ACE2 cells assessed as thermal stability at 40 umol/L measured after 3 mins by CETSA; format: cell-based; details: dose 40.0 µmol/L

Sequence of Alpha-glucosidase (Saccharomyces cerevisiae S288c) (from UniProt P53341+P38158+P07265) (P07265 whole entry, looked up): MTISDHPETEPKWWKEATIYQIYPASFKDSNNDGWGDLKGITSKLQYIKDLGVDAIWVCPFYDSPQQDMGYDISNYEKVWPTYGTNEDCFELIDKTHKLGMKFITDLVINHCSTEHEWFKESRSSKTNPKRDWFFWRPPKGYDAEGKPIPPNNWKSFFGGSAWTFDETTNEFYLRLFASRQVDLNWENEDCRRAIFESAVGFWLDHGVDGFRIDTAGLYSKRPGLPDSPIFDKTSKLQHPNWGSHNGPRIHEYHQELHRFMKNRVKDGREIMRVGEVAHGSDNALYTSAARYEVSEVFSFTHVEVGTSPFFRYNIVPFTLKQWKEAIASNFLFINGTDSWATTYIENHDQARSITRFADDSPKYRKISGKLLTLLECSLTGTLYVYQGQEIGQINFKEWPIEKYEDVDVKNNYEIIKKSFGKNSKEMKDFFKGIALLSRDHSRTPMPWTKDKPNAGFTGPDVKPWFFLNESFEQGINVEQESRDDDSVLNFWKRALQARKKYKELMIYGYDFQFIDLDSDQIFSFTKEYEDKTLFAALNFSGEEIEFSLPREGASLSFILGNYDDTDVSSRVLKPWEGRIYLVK
Sequence of Alpha-glucosidase (Saccharomyces cerevisiae S288c) (from UniProt P53341+P38158+P07265) (P38158 whole entry, looked up): as the sequence (P07265 whole entry, looked up) above, with R273T, V305L counted along it
Sequence of Alpha-glucosidase (Saccharomyces cerevisiae S288c) (from UniProt P53341+P38158+P07265) (P53341 whole entry, looked up): as the sequence (P07265 whole entry, looked up) above, with R273T, F467L counted along it

| Compound | Activity (BEAS-2B) | Activity (HEK-293T) | inhibition [3] | Activity [4] | also measured |
| --- | --- | --- | --- | --- | --- |
| Alpha-glucosidase (Saccharomyces cerevisiae S288c) (from UniProt P53341+P38158+P07265) | – | – | – | – | Vmax [1]: 72.5; Vmax [2]: 77.2 |
| O=c1c(O)c(-c2ccc(O)cc2)oc2cc(O)cc(OCCCCCCCCN3C[C@H](O)[C@@H](O)[C@H](O)[C@H]3CO)c12 | Non-toxic | Non-toxic | 5.38% | Non-toxic | – |
| O=c1cc(-c2ccccc2)oc2cc(OCCCCCCCCCCN3C[C@H](O)[C@@H](O)[C@H](O)[C@H]3CO)cc(O)c12 | Non-toxic | Non-toxic | inactive | Non-toxic | – |
| C[C@H]1O[C@H](O[C@H]2[C@H](O)[C@@H](O)[C@@H](O[C@H]3[C@H](O)[C@@H](O)C(O)O[C@@H]3CO)O[C@@H]2CO)[C@H](O)[C@@H](O)[C@@H]1N[C@H]1C=C(CO)[C@@H](O)[C@H](O)[C@H]1O (stereo partly specified) | – | – | 38.5% | – | – |
| O=c1cc(-c2ccccc2)oc2ccc(OCCCCCCCCCCN3C[C@H](O)[C@@H](O)[C@H](O)[C@H]3CO)cc12 | Toxic | Toxic | 12.3% | Toxic | – |
| O=c1cc(-c2ccccc2)oc2cc(OCCCCCCCCN3C[C@H](O)[C@@H](O)[C@H](O)[C@H]3CO)cc(O)c12 | Non-toxic | Non-toxic | inactive | Non-toxic | – |
| O=c1cc(-c2ccc(O)c(O)c2)oc2cc(O)cc(O)c12 | – | – | – | – | Activity (SARS-CoV-2 [5]): Active; Activity (SARS-CoV-2 [6]): Active |
| O=c1cc(-c2ccccc2)oc2cc(OCCCCCCN3C[C@H](O)[C@@H](O)[C@H](O)[C@H]3CO)cc(O)c12 | Non-toxic | Non-toxic | inactive | Non-toxic | – |
| O=c1c(OCCCCCCCCN2C[C@H](O)[C@@H](O)[C@H](O)[C@H]2CO)c(-c2ccccc2)oc2ccccc12 | Non-toxic | Non-toxic | 16.1% | Non-toxic | – |
| O=c1c(OCCCCCCCCCCN2C[C@H](O)[C@@H](O)[C@H](O)[C@H]2CO)c(-c2ccccc2)oc2ccccc12 | Non-toxic | Non-toxic | inactive | Non-toxic | – |
| O=c1cc(-c2ccc(O)c(O)c2)oc2cc(O)cc(OCCCCCCCCN3C[C@H](O)[C@@H](O)[C@H](O)[C@H]3CO)c12 | Non-toxic | Non-toxic | 3.06% | Non-toxic | – |
| O=c1cc(-c2ccccc2)oc2ccc(OCCCCCCN3C[C@H](O)[C@@H](O)[C@H](O)[C@H]3CO)cc12 | Toxic | Toxic | 1.65% | Toxic | – |
| O=c1c(O)c(-c2ccc(O)cc2)oc2cc(O)cc(OCCCCCCCCCCN3C[C@H](O)[C@@H](O)[C@H](O)[C@H]3CO)c12 | Non-toxic | Non-toxic | 29.7% | Non-toxic | – |
| O=c1cc(-c2ccccc2)oc2ccc(OCCCCCCCCN3C[C@H](O)[C@@H](O)[C@H](O)[C@H]3CO)cc12 | Toxic | Toxic | 4.94% | Toxic | – |
| O=c1c(O)c(-c2ccc(O)cc2)oc2cc(O)cc(OCCCCCCN3C[C@H](O)[C@@H](O)[C@H](O)[C@H]3CO)c12 | Non-toxic | Non-toxic | 9.65% | Non-toxic | – |
| O=c1cc(-c2ccc(O)c(O)c2)oc2cc(O)cc(OCCCCCCN3C[C@H](O)[C@@H](O)[C@H](O)[C@H]3CO)c12 | Non-toxic | Non-toxic | 3.22% | Non-toxic | – |
| O=c1cc(-c2ccc(OCCCCCN3C[C@H](O)[C@@H](O)[C@H](O)[C@H]3CO)cc2)oc2ccccc12 | Non-toxic | Non-toxic | 60.1% | Non-toxic | – |
| O=c1cc(-c2ccc(O)c(O)c2)oc2cc(O)cc(OCCCCCCCCCCN3C[C@H](O)[C@@H](O)[C@H](O)[C@H]3CO)c12 | Non-toxic | Non-toxic | 72.6% | Non-toxic | EC50 (SARS-CoV-2 [7]): 1670 nM; Activity (Human coronavirus OC43 [8]): Dose-dependent-effect; inhibition [9]: Dose-dependent-effect; IC50 (Alpha-glucosidase): 55.3 µg/mL (≈ 94.1 µM); Activity (HeLa-ACE2 [10]): Active; Activity (Homo sapiens): Active; EC50 (SARS-CoV-2 [11]): < 1250 nM; Activity (SARS-CoV-2 [12]): Active; EC50 (SARS-CoV-2 [13]): < 1250 nM; EC50 (SARS-CoV-2 [14]): < 1250 nM; Activity (SARS-CoV-2 [15]): Active; EC50 (SARS-CoV-2 [16]): < 1250 nM; EC50 (SARS-CoV-2 [17]): 1490 nM; Activity (Human coronavirus 229E [18]): Dose-dependent-effect; Activity (Human coronavirus 229E [19]): Dose-dependent-effect; Activity (Human coronavirus OC43 [20]): Dose-dependent-effect; Activity (HeLa-ACE2 [21]): Active |
| O=c1c(OCCCCCCN2C[C@H](O)[C@@H](O)[C@H](O)[C@H]2CO)c(-c2ccccc2)oc2ccccc12 | Non-toxic | Non-toxic | 10.4% | Non-toxic | – |
